According to patent EP3770254A1, “LIQUID P[…] TRANSGLUTAMINASE” (AJINOMOTO CO., INC., priority 2018, dated 2019):
Where a name gives a salt, the structure may show the parent alone.

These molecules were tested against T1, transglutaminase (Streptomyces mobaraensis, UniProt P81453) (assay: not given). Conditions: conclusion of Experimental Example 4; organic acid salt 10 wt%, 44°C 24 hr.
T1 sequence (P81453 77-407): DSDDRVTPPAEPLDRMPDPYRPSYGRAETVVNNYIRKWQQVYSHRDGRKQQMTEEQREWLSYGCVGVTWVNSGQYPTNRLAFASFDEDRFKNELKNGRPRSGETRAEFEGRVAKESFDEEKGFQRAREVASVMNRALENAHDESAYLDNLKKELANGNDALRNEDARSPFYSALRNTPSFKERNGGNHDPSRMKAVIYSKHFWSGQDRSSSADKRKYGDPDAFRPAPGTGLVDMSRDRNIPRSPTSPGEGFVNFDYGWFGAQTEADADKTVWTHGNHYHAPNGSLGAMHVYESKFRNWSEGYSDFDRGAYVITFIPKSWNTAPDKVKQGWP
`O=C([O-])[C@H](O)[C@@H](O)[C@H](O)[C@H](O)CO.[Na+]` [sodium gluconate] was tested, and the stabilization of transglutaminase was “can also stabilize transglutaminase”. With `O=C(O)CC(O)(CC(=O)O)C(=O)O` [sodium citrate] the stabilization of transglutaminase was “can also stabilize transglutaminase”. With `CC(=O)O` [sodium acetate] the stabilization of transglutaminase was “can also stabilize transglutaminase”.

What follows are molecules tested against T1, transglutaminase (assay: Experimental Example 1: accelerated test by high temperature storage, transglutaminase activity by hydroxamate method). Conditions: conclusion of Experimental Example 1; additive 10 wt%, 44°C 24 hr.
Assay type: physicochemical, microorganism
Procedure: The enzyme activity of transglutaminase can be measured and calculated by, for example, the hydroxamate method. That is, benzyloxycarbonyl-L-glutaminyl glycine is reacted with hydroxylamine as a substrate to form an iron complex of hydroxamic acid formed in the aforementioned reaction in the presence of trichloroacetic acid, the absorbance at 525 nm is measured, and the amount of hydroxamic acid produced is determined from the calibration curve, whereby the enzyme activity can be calculated.
The stability of transglutaminase in each liquid preparation of the above-mentioned Examples 1 - 5 and Comparative Example 1 was evaluated by an accelerated test by high temperature storage as follows.
Respective liquid preparations of the above-mentioned Examples 1 - 5 and Comparative Example 1 were stored at 4°C and 44°C for 24 hr, and the transglutaminase activity in the liquid preparation was measured by the above-mentioned hydroxamate method.
A liquid preparation obtained by dissolving only transglutaminase in a phosphate buffer was used as a control and treated in the same manner.
In the case of `Cl.NCCCC[C@H](N)C(=O)O` [lysine hydrochloride, reference compound], the “transglutaminase stabilizing effect in a liquid preparation” value (from here on “transglutaminase stabilizing effect”) is reported as “not found”. With `N[C@@H](CCC(=O)[O-])C(=O)[O-].[Na+].[Na+]` [sodium glutamate] the “transglutaminase stabilizing effect” value was “has a transglutaminase stabilizing effect”. `N[C@@H](CC(=O)[O-])C(=O)[O-].[Na+].[Na+]` [sodium aspartate] was tested, and the “transglutaminase stabilizing effect” value was “has a transglutaminase stabilizing effect”. In the case of `NCC(=O)O` [glycine, 2-aminoacetic acid], the “transglutaminase stabilizing effect” value is reported as “has a transglutaminase stabilizing effect”. `O=C(O)C1CCCN1` (stereo not drawn) [proline, pyrrolidine-2-carboxylic acid] was tested, and the “transglutaminase stabilizing effect” value was “has a transglutaminase stabilizing effect”. `NC(CO)C(=O)O` (stereo not drawn) [serine, 2-amino-3-hydroxypropionic acid] was tested, and the “transglutaminase stabilizing effect” value was “has a transglutaminase stabilizing effect”.
